Values joined by “and” are separate entries in the source; they are usually repeats but may differ in a detail not shown here. Identical values can stand only once. Inconclusive results and toxic doses are left out.
System: CD2F1 mice, L1210 leukemia ip, survival T/C
Assay: NCI In Vivo Anticancer Drug Screen. Data for tumor model L1210 Leukemia (intraperitoneal) in CD2F1 (CDF1) mice
Conditions: higher = longer survival
How it was run: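 Compound-dosed mice with transplantable tumor versus matched vehicle controls; endpoint ratio T/C reported.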

[1] = endpoint: mean survival time, dose: 100.0 mg/kg/injection, schedule: Q01DX009 (ip), vehicle: saline with Tween-80
[2] = endpoint: mean survival time, dose: 200.0 mg/kg/injection, schedule: Q01DX009 (ip), vehicle: saline with Tween-80
[3] = endpoint: mean survival time, dose: 100.0 mg/kg/injection, schedule: Q01DX009 (ip), vehicle: saline
[4] = endpoint: mean survival time, dose: 200.0 mg/kg/injection, schedule: Q01DX009 (ip), vehicle: saline
[5] = endpoint: mean survival time, dose: 200.0 mg/kg/injection, schedule: Q04DX003 (ip), vehicle: saline
[6] = endpoint: mean survival time, dose: 100.0 mg/kg/injection, schedule: Q01DX001 (ip), vehicle: saline
[7] = endpoint: mean survival time, dose: 200.0 mg/kg/injection, schedule: Q01DX001 (ip), vehicle: saline
[8] = endpoint: mean survival time, dose: 400.0 mg/kg/injection, schedule: Q01DX001 (ip), vehicle: saline

## CCC(O)C[As](=O)(O)c1ccccc1Cl (configuration not stated)
endpoint: mean survival time, dose: 6.25 mg/kg/injection, schedule: Q04DX003 (ip), vehicle: saline with Tween-80
  T/C: 107 % of control
endpoint: mean survival time, dose: 12.5 mg/kg/injection, schedule: Q04DX003 (ip), vehicle: saline with Tween-80
  T/C: 98 % of control
endpoint: mean survival time, dose: 25.0 mg/kg/injection, schedule: Q04DX003 (ip), vehicle: saline with Tween-80
  T/C: 104 % of control

## CSC#N
endpoint: mean survival time, dose: 5.0 mg/kg/injection, schedule: Q01DX009 (ip), vehicle: Klucel (hydroxypropylcellulose) (HPC)
  T/C: 102 % of control
endpoint: mean survival time, dose: 10.0 mg/kg/injection, schedule: Q01DX009 (ip), vehicle: Klucel (hydroxypropylcellulose) (HPC)
  T/C: 102 % of control

## CCCCN(CCCC)CC(O)c1cc(-c2cc(C(O)CN(CCCC)CCCC)c3ccccc3n2)nc2ccccc12 (configuration not stated)
endpoint: mean survival time, dose: 100.0 mg/kg/injection, schedule: Q04DX003 (ip), vehicle: saline with Tween-80
  T/C: 95 % of control
endpoint: mean survival time, dose: 200.0 mg/kg/injection, schedule: Q04DX003 (ip), vehicle: saline with Tween-80
  T/C: 86 % of control

## NNc1ncnc2c(C3OC(CO)C(O)C3O)[nH]nc12 (configuration not stated)
endpoint: mean survival time, dose: 150.0 mg/kg/injection, schedule: Q01DX009 (ip), vehicle: saline sonified
  T/C: 155 % of control

## CCOC(=O)C(Cl)c1ccc(OC)cc1 (configuration not stated)
endpoint: mean survival time, dose: 100.0 mg/kg/injection, schedule: Q04DX003 (ip), vehicle: other
  T/C: 96 % of control
endpoint: mean survival time, dose: 200.0 mg/kg/injection, schedule: Q04DX003 (ip), vehicle: other
  T/C: 97 % of control
endpoint: mean survival time, dose: 400.0 mg/kg/injection, schedule: Q04DX003 (ip), vehicle: other
  T/C: 96 % of control

## COc1ccccc1NC(=O)c1ccccc1
[1]
  T/C: 98 % of control
[2]
  T/C: 114 % of control
endpoint: mean survival time, dose: 400.0 mg/kg/injection, schedule: Q01DX009 (ip), vehicle: saline with Tween-80
  T/C: 104 % of control

## O=C(O)/C=C/c1ccccc1C(=O)O
[3]
  T/C: 103 % of control
[4]
  T/C: 101 % of control
endpoint: mean survival time, dose: 400.0 mg/kg/injection, schedule: Q01DX009 (ip), vehicle: saline
  T/C: 101 % of control

## C=C(C)CC#N
endpoint: mean survival time, dose: 50.0 mg/kg/injection, schedule: Q01DX009 (ip), vehicle: saline
  T/C: 92 % of control
[3]
  T/C: 95 % of control
[4]
  T/C: 100 % of control

## COC(=O)c1cc2cc3c(c(O)c2c(=O)o1)OC1(Cc2c(O)c4c(c(O)c2O1)C(=O)C(OC)CC4=O)CC3O (configuration not stated)
endpoint: mean survival time, dose: 12.5 mg/kg/injection, schedule: Q01DX009 (ip), vehicle: saline with Tween-80
  T/C: 92 % of control
endpoint: mean survival time, dose: 25.0 mg/kg/injection, schedule: Q01DX009 (ip), vehicle: saline with Tween-80
  T/C: 94 % of control
endpoint: mean survival time, dose: 100.0 mg/kg/injection, schedule: Q01DX001 (ip), vehicle: saline with Tween-80
  T/C: 91 % of control
[1]
  T/C: 101 % of control
endpoint: mean survival time, dose: 200.0 mg/kg/injection, schedule: Q01DX001 (ip), vehicle: saline with Tween-80
  T/C: 96 % of control

## C/C=C(\C)c1cc(=O)c2c(C)cc3c(c2o1)C(=O)c1c(O)c(C2CC(C)(N(C)C)C(O)C(C)O2)cc(C2CC(N(C)C)C(O)C(C)O2)c1C3=O (configuration not stated)
endpoint: mean survival time, dose: 0.38 mg/kg/injection, schedule: Q01DX009 (ip), vehicle: saline
  T/C: 102 % of control
endpoint: mean survival time, dose: 0.62 mg/kg/injection, schedule: Q01DX009 (ip), vehicle: saline
  T/C: 115 % of control
endpoint: mean survival time, dose: 0.63 mg/kg/injection, schedule: Q01DX009 (ip), vehicle: saline
  T/C: 116 % of control
endpoint: mean survival time, dose: 0.75 mg/kg/injection, schedule: Q01DX009 (ip), vehicle: saline
  T/C: 109 % of control
endpoint: mean survival time, dose: 1.25 mg/kg/injection, schedule: Q01DX009 (ip), vehicle: saline
  T/C: 113 % of control and 105 % of control
endpoint: mean survival time, dose: 1.5 mg/kg/injection, schedule: Q01DX009 (ip), vehicle: saline
  T/C: 113 % of control
endpoint: mean survival time, dose: 3.0 mg/kg/injection, schedule: Q01DX009 (ip), vehicle: saline
  T/C: 107 % of control
endpoint: mean survival time, dose: 3.13 mg/kg/injection, schedule: Q01DX009 (ip), vehicle: saline with Tween-80
  T/C: 98 % of control
endpoint: mean survival time, dose: 31.25 micrograms/kg/injection, schedule: Q01DX009 (ip), vehicle: saline
  T/C: 103 % of control
endpoint: mean survival time, dose: 62.5 micrograms/kg/injection, schedule: Q01DX009 (ip), vehicle: saline
  T/C: 115 % of control
endpoint: mean survival time, dose: 125.0 micrograms/kg/injection, schedule: Q01DX009 (ip), vehicle: saline
  T/C: 111 % of control
endpoint: mean survival time, dose: 156.25 micrograms/kg/injection, schedule: Q01DX009 (ip), vehicle: saline
  T/C: 119 % of control
endpoint: mean survival time, dose: 250.0 micrograms/kg/injection, schedule: Q01DX009 (ip), vehicle: saline
  T/C: 115 % of control
endpoint: mean survival time, dose: 500.0 micrograms/kg/injection, schedule: Q01DX009 (ip), vehicle: saline
  T/C: 115 % of control
endpoint: mean survival time, dose: 625.0 micrograms/kg/injection, schedule: Q01DX009 (ip), vehicle: saline
  T/C: 104 % of control
endpoint: mean survival time, dose: 1000.0 micrograms/kg/injection, schedule: Q01DX009 (ip), vehicle: saline
  T/C: 105 % of control
endpoint: mean survival time, dose: 1250.0 micrograms/kg/injection, schedule: Q01DX009 (ip), vehicle: saline
  T/C: 120 % of control
endpoint: mean survival time, dose: 2500.0 micrograms/kg/injection, schedule: Q01DX009 (ip), vehicle: saline
  T/C: 95 % of control
endpoint: median survival time, dose: 3.13 mg/kg/injection, schedule: Q01DX001 (ip), vehicle: saline with Tween-80
  T/C: 111 % of control
endpoint: median survival time, dose: 6.25 mg/kg/injection, schedule: Q01DX001 (ip), vehicle: saline with Tween-80
  T/C: 111 % of control
endpoint: median survival time, dose: 12.5 mg/kg/injection, schedule: Q01DX001 (ip), vehicle: saline with Tween-80
  T/C: 122 % of control
endpoint: median survival time, dose: 25.0 mg/kg/injection, schedule: Q01DX001 (ip), vehicle: saline with Tween-80
  T/C: 111 % of control

## CCC(C(=O)O)C(=O)O.[NH2-].[NH2-].[Pt+2]
endpoint: mean survival time, dose: 12.5 mg/kg/injection, schedule: Q04DX003 (ip), vehicle: saline
  T/C: 101 % of control
[5]
  T/C: 87 % of control
endpoint: median survival time, dose: 3.12 mg/kg/injection, schedule: Q01DX009 (ip), vehicle: saline
  T/C: 108 % of control
endpoint: median survival time, dose: 100.0 mg/kg/injection, schedule: Q01DX009 (ip), vehicle: saline
  T/C: 95 % of control

## CC(=O)OC1CCC(C(C)(C)C)CC1 (configuration not stated)
endpoint: mean survival time, dose: 100.0 mg/kg/injection, schedule: Q04DX003 (ip), vehicle: saline
  T/C: 102 % of control
[5]
  T/C: 95 % of control
endpoint: mean survival time, dose: 400.0 mg/kg/injection, schedule: Q04DX003 (ip), vehicle: saline
  T/C: 96 % of control

## Cc1cc(C=O)c(C)n1-c1ccc(C(=O)O)cc1
endpoint: mean survival time, dose: 50.0 mg/kg/injection, schedule: Q01DX009 (ip), vehicle: saline with Tween-80
  T/C: 101 % of control
[1]
  T/C: 93 % of control
[2]
  T/C: 101 % of control

## [O-][n+]1ccccc1F
[6]
  T/C: 104 % of control

## O=c1cc(CCl)n2cnc3c(ncn3C3OC(CO)C(O)C3O)c2n1 (configuration not stated)
endpoint: median survival time, dose: 12.5 mg/kg/injection, schedule: Q01DX005 (ip), vehicle: saline with Tween-80
  T/C: 103 % of control
endpoint: median survival time, dose: 25.0 mg/kg/injection, schedule: Q01DX005 (ip), vehicle: saline with Tween-80
  T/C: 102 % of control
endpoint: median survival time, dose: 50.0 mg/kg/injection, schedule: Q01DX005 (ip), vehicle: saline with Tween-80
  T/C: 96 % of control
endpoint: median survival time, dose: 100.0 mg/kg/injection, schedule: Q01DX005 (ip), vehicle: saline with Tween-80
  T/C: 104 % of control
endpoint: median survival time, dose: 200.0 mg/kg/injection, schedule: Q01DX005 (ip), vehicle: saline with Tween-80
  T/C: 98 % of control

## O=C(C[P+](c1ccccc1)(c1ccccc1)c1ccccc1)C[P+](c1ccccc1)(c1ccccc1)c1ccccc1
[6]
  T/C: 97 % of control
[7]
  T/C: 95 % of control
[8]
  T/C: 92 % of control

## CC(C)c1cc(C(=O)O)c(O)c(C(C)C)c1.CC(C)c1cc(C(=O)O)c(O)c(C(C)C)c1.[Cu]
endpoint: median survival time, dose: 6.25 mg/kg/injection, schedule: Q01DX009 (ip), vehicle: saline with Tween-80
  T/C: 100 % of control
endpoint: median survival time, dose: 12.5 mg/kg/injection, schedule: Q01DX009 (ip), vehicle: saline with Tween-80
  T/C: 96 % of control
endpoint: median survival time, dose: 25.0 mg/kg/injection, schedule: Q01DX009 (ip), vehicle: saline with Tween-80
  T/C: 96 % of control

## Cc1cc(C)c2c(C#N)cn(-c3ccccc3)c2n1
[6]
  T/C: 104 % of control
[7]
  T/C: 100 % of control
[8]
  T/C: 100 % of control
